Reference: article PMC5841354, “Gomesin peptides prevent proliferation and lead to the cell death of devil facial tumour disease cells” (Cell Death Discovery, 2018)
Where a SMILES comes first, the peptide text is derived from it. Bridges are numbered along the chain shown (N, C = ends). [ ]: non-standard residue; d: D form. pGlu = O=C1CC[C@@H](C(=O)O)N1

Tests used:
[1] = test system: DFTD4 cells; test: MTT cell viability, DFTD4 cells; type: cell-based, Tasmanian devil (Sarcophilus harrisii); details: 48 h; for anti-proliferative / cytotoxic activity compared with AgGom: DFTD cell lines (DFTD1, DFTD2, DFTD4); for cell viability / anti-proliferative activity in DFTD4 cells: 50 µg/mL
Excerpt: (§1) All DFTD (DFTD1, DFTD2, and DFTD4) and fibroblast (FIBS) cell lines were obtained from the Department of Primary Industries, Parks, Water, and Environment, State Government of Tasmania (DPIPWE) and were established as part of management plan and adhere to a standard operating practice. The DFTD1 cell line with catalogue number 3287 is derived from the tumour from a female devil (tag number: 06/2887) collected at St Marys, Eastern Tasmania in 2006. DFTD2 cell line with catalogue number 8961 was developed from a tumour from a male devil (tag number: 12/0625) collected at Kempton, Northern Tasmania in 2012. The DFTD4 cell line with catalogue number 4099 was developed from the tumour of a male devil (tag number: 07/0192) that was collected at Freycinet, east coast of Tasmania in 2007 and Fibroblasts cells (FIBS) with catalogue number 497 were obtained from a healthy devil male pup (tag number: 05/0962) held at Mount Pleasant, Southeastern of Tasmania in 2005.
(§2) Devil Facial Tumor cancer cell lines, and the control Tasmanian Devil fibroblast (FIBS) healthy cell line were maintained in a humidified incubator at 35 °C and 5% CO2. The DFTD cell lines were cultured in RPMI-1640 medium supplemented with 10% FCS, and 2 mM Glutamax. The FIBS was grown in GIBCO AmnioMAX-C100 Basal Medium liquid, containing AmnioMAX-C100 supplement. Penicillin/streptomycin (PS) (100 U/ml each) was added to both media. The cells were passaged at ~90% confluency. Functional studies were performed with passages up to 20. All cell lines were mycoplasma free.
(§3) Cell viability as an indicator of the number of viable and proliferative cells was measured by MTT according to the protocol of the manufacturer (Sigma-Aldrich, Australia). In brief, 8000 DFTD and 5000 FIBS cells/well were seeded in a 96-flat adherent microtiter well plate for 24 h to allow cell adhesion. Gomesin peptides and/or analogues were then added to the plates to measure MTT reduction. Plates were measured after 48 h at 540 nm absorbance in a microplate reader (BIOTEK PowerWave XS, USA). 0.1% SDS was used as a positive control (100% toxicity). A row of untreated cells was used to define 100% viability and blank wells containing only media were used to extract background. The concentration of gomesin peptides causing 50% inhibition (EC50) in DFTD and FIBS cells was determined using GraphPad Prism Software (Graphpad Inc, USA).

[2] = test system: FIBS cells; test: MTT cell viability, non-transformed fibroblasts (FIBS); type: cell-based, Tasmanian devil (Sarcophilus harrisii); details: 48 h; for deleterious effects on FIBS viability: 50 µg/mL
Excerpt: as §1, §2, §3

[3] = test system: DFTD4 cells; test: Cell cycle analysis (PI, flow cytometry); type: cell-based, Tasmanian devil (Sarcophilus harrisii); details: 50 μg/mL, 24 h, mean ± SEM, three independent experiments
Method: DFTD4 cells were synchronised by removing serum from the medium for ~24 h. Cells were then transferred into medium containing serum and treated with AgGom or HiGom at 50 µg/mL for 24 h. Cells were detached mechanically, washed with PBS and fixed with 70% ethanol for ~1 h at 4 °C. Ethanol was removed by centrifugation (453 g for 5 min) and cells were washed with PBS. Cells were treated with 5 µL of 10 µg/mL ribonuclease A to remove RNA contamination and further incubated for 1 h at 37 °C to allow release of low-molecular weight DNA. Cell pellets were stained with 10 µL of propidium iodide (PI) (1 mg/ml) and analysed at a maximum emission of 605 nm using a LSR Fortessa 5 analyser (BD Biosciences, San Diego, CA, US). Approximately 10,000 events were recorded and data were analysed using FlowJo software v10.06 (FlowJo, US).

[4] = test system: DFTD4 cells; test: Annexin V-FITC/PI apoptosis and necrosis; type: cell-based, Tasmanian devil (Sarcophilus harrisii); details: 24 h
Method: Apoptosis in DFTD4 cells treated with AgGom or HiGom was measured using an Annexin V-FITC Apoptosis detection kit in combination with a Canto II high-throughput fluorescence-activated cell sorter (BD Biosciences, USA). Briefly, cells were seeded at a density of 100,000 cells/well in a round-bottom 96-well plate and treated with 50 µg/mL AgGom or HiGom for 24 h. The cells were collected mechanically, washed twice with PBS and once with wash buffer provided by the manufacturer. Cells were stained simultaneously with FITC-labelled annexin V and PI for 30 min in the dark and at room temperature before being analysed.

[5] = test system: DFTD4 cells; test: qRT-PCR of cell cycle check-point, pro-survival and apoptosis genes; type: cell-based, Tasmanian devil (Sarcophilus harrisii); details: 50 μg/mL, vs. vehicle
Method: Total RNA was extracted from both untreated (control) and gomesin-treated DFTD4 cells using an RNeasy kit (Qiagen, Australia) and 1 µg was reverse-transcribed into cDNA using SensiFast (Bioline, UK). Quantitative real time-PCR (qRT-PCR) to quantitate mRNA expression was performed on a LightCycler Instrument (Roche Molecular Biochemicals, Australia) with Tasmanian devil 18S used as the reference (housekeeper) gene. All primers are listed in Supplementary.

[6] = test system: DFTD4 cells; test: Reactive oxygen species (Carboxy-H2DCFDA, flow cytometry); type: cell-based, Tasmanian devil (Sarcophilus harrisii); details: 50 μg/mL, 24 h, vs. untreated
Method: An Amplex Red Hydrogen Peroxidase assay kit (Invitrogen, Australia) was used to measure reactive oxygen species (ROS) generation in DFTD4 cells. A fluorescence probe that detects intracellular H2O2, Carboxy-H2DCFDA, was added 30 min prior to collecting cells to measure ROS production in DFTD4 cells that were previously treated with gomesin peptides at 50 µg/mL for 24 h. Fluorescent cells were washed twice with PBS prior to analysis on a FACSCalibur flow cytometer (BD Biosciences, USA) using excitation and emission wavelengths of 492 nm and 517 nm, respectively. Approximately 10,000 events were recorded per sample and the readout was analysed using FlowJo software v10.06 (FlowJo, USA).

[7] = test system: DFTD4 cells; test: Mitochondrial membrane potential (Rhodamine 123); type: cell-based, Tasmanian devil (Sarcophilus harrisii); details: 50 µg/mL, 24 h, vs. vehicle
Method: We measured the mitochondrial membrane potential (MMP) using Rhodamine 123 (Rhod-123) (Sigma-Aldrich, Australia), a cationic dye that is localised in mitochondria. Loss-of-MMP results in loss-of-Rhod-123 fluorescence. Approximately 1 × 10^6 DFTD4 cells treated with AgGom or HiGom at 50 µg/mL for 24 h were collected and resuspended in 0.1 ml of culture medium, stained with 10 µg/mL Rhod-123 for 30 min, and then washed with PBS. The intracellular concentration of Rho123 was determined immediately after by flow cytometry (BD Biosciences, USA) using an excitation wavelength of 488 nm. The data were analysed using FlowJo v10.06 (FlowJo, USA).

[8] = test system: DFTD; details: human chemotherapeutic agents in Tasmanian devils; cited from earlier work
Excerpt: With no treatment available for DFTD, scientists maintain captive, disease-free breeding populations that are released into the wild. Major research efforts are focused on understanding the molecular mechanisms of DFTD and why tumour cells fail to stimulate an immune response in the Tasmanian Devil, including the dramatic downregulation of the expression of Major Histocompatibility Complex (MHC) Class I genes[5]–[9]. Previous trials to treat DFTD using human chemotherapeutic agents, such as vincristine, doxorubicin, and carboplatin have proven to be unsuccessful[10],[11]. In this study, we pos ...

For `CC(C)C[C@@H]1NC(=O)[C@H](CCCNC(=N)N)NC(=O)[C@H](CCCNC(=N)N)NC(=O)[C@@H](NC(=O)[C@@H]2CCC(=O)N2)CSSC[C@@H](C(=O)N[C@@H](CCCNC(=N)N)C(=O)NCC(=O)N[C@@H](CCCNC(=N)N)C(N)=O)NC(=O)[C@H](Cc2ccc(O)cc2)NC(=O)[C@H]([C@@H](C)O)NC(=O)[C@H](C(C)C)NC(=O)[C@@H]2CSSC[C@H](NC1=O)C(=O)N[C@@H](Cc1ccc(O)cc1)C(=O)N[C@@H](CCCCN)C(=O)N[C@@H](CC(N)=O)C(=O)N[C@@H](CCCNC(=N)N)C(=O)N2` [AgGomKN] ([pGlu]CRRLCYKNRCVTYCRGR-NH2; disulfide 2-15, 6-11), the “anti-proliferative / cytotoxic activity compared with AgGom” value [1] was “higher anti-proliferative activity than AgGom” and the “deleterious effects on FIBS viability” value [2] was “minimal deleterious effects”.

In the case of `CC(C)C[C@@H]1NC(=O)[C@H](CCCNC(=N)N)NC(=O)[C@H](CCCNC(=N)N)NC(=O)[C@@H](NC(=O)[C@@H]2CCC(=O)N2)CSSC[C@@H](C(=O)N[C@@H](CCCNC(=N)N)C(=O)NCC(=O)N[C@@H](CCCNC(=N)N)C(N)=O)NC(=O)[C@H](Cc2ccc(O)cc2)NC(=O)[C@H]([C@@H](C)O)NC(=O)[C@H](C(C)C)NC(=O)[C@@H]2CSSC[C@H](NC1=O)C(=O)N[C@@H](Cc1ccc(O)cc1)C(=O)N[C@@H](CCCCN)C(=O)N[C@@H](CCCNC(=N)N)C(=O)N[C@@H](CCCNC(=N)N)C(=O)N2` [AgGomKR] ([pGlu]CRRLCYKRRCVTYCRGR-NH2; disulfide 2-15, 6-11), the “anti-proliferative / cytotoxic activity compared with AgGom” value [1] is reported as “higher anti-proliferative activity than AgGom” and the “deleterious effects on FIBS viability” value [2] is reported as “minimal deleterious effects”.

For `CC(C)C[C@@H]1NC(=O)[C@H](CCCNC(=N)N)NC(=O)[C@H](CCCNC(=N)N)NC(=O)[C@@H](NC(=O)[C@@H]2CCC(=O)N2)CSSC[C@@H](C(=O)N[C@@H](CCCNC(=N)N)C(=O)NCC(=O)N[C@@H](CCCNC(=N)N)C(N)=O)NC(=O)[C@H](Cc2ccc(O)cc2)NC(=O)[C@H]([C@@H](C)O)NC(=O)[C@H](C(C)C)NC(=O)[C@@H]2CSSC[C@H](NC1=O)C(=O)N[C@@H](Cc1ccc(O)cc1)C(=O)N[C@@H](CCCNC(=N)N)C(=O)N[C@@H](CC(N)=O)C(=O)N[C@@H](CCCNC(=N)N)C(=O)N2` [HiGom] ([pGlu]CRRLCYRNRCVTYCRGR-NH2; disulfide 2-15, 6-11), the “cell viability / anti-proliferative activity in DFTD4 cells” value [1] was “dramatically reduced the cell viability”, the “anti-proliferative / cytotoxic activity compared with AgGom” value [1] was “more cytotoxic than AgGom” and the “deleterious effects on FIBS viability” value [2] was “not statistically significant”. For the same molecule, the “effects on FIBS viability” value ([2]; 0.5 to 25 µg/mL) was “negligible effects”, the G0/G1 [3] was 47.2 ± 0.66 and the G2/M [3] was 13.3 ± 0.7. For the same molecule, the S-phase [3] was 13.7 ± 1.9, the “early or late apoptotic cell ratio” value ([4]; 50 µg/mL) was “not altered” and the “necrosis of DFTD cells compared to untreated cells” value ([4]; 50 µg/mL) was “significantly increased necrosis”. For the same molecule, the “expression of BCL2” value [5] was “enhanced”, the “expression of p53” value [5] was “enhanced” and the p27 expression [5] was “elevated”. The ROS [6] was “significant increase in ROS” and the MMP [7] was “significant decrease in MMP”.

With `CC[C@H](C)[C@@H]1NC(=O)[C@H](CCCNC(=N)N)NC(=O)[C@H](CCCNC(=N)N)NC(=O)[C@@H](NC(=O)[C@@H]2CCC(=O)N2)CSSC[C@@H](C(=O)N[C@@H](CCCNC(=N)N)C(=O)NCC(=O)N[C@@H](CCCNC(=N)N)C(N)=O)NC(=O)[C@H](Cc2ccc(O)cc2)NC(=O)[C@H]([C@@H](C)O)NC(=O)[C@H](Cc2ccccc2)NC(=O)[C@@H]2CSSC[C@H](NC1=O)C(=O)NCC(=O)N[C@@H](CCCNC(=N)N)C(=O)N[C@@H](CCCNC(=N)N)C(=O)N[C@@H](CCCNC(=N)N)C(=O)N2` [SpGom] ([pGlu]CRRICGRRRCFTYCRGR-NH2; disulfide 2-15, 6-11) the “anti-proliferative / cytotoxic activity compared with AgGom” value [1] was “higher anti-proliferative activity than AgGom” and the “deleterious effects on FIBS viability” value [2] was “minimal deleterious effects”.

In the case of `CC[C@@]1(O)C(=O)OCc2c1cc1n(c2=O)Cc2cc3ccccc3nc2-1` [camptothecin, reference compound], the late apoptosis ([4]; 10 µM, positive control) is reported as > 30%.

For `N.N.O=C([O-])C1(C(=O)[O-])CCC1.[Pt+2]` [carboplatin], the “outcome of trials to treat DFTD” value [8] is given as “unsuccessful”.

For `COc1cccc2c1C(=O)c1c(O)c3c(c(O)c1C2=O)C[C@@](O)(C(=O)CO)C[C@@H]3O[C@H]1C[C@H](N)[C@H](O)[C@H](C)O1` [doxorubicin], the “outcome of trials to treat DFTD” value [8] is listed as “unsuccessful”.

In the case of `CC[C@]1(O)C[C@H]2CN(CCc3c([nH]c4ccccc34)[C@@](C(=O)OC)(c3cc4c(cc3OC)N(C=O)[C@H]3[C@@](O)(C(=O)OC)[C@H](OC(C)=O)[C@]5(CC)C=CCN6CC[C@]43[C@@H]65)C2)C1` [vincristine], the “outcome of trials to treat DFTD” value [8] is given as “unsuccessful”.

With “ZCARLCYKQRCVTYCRGR-NH2 (bicyclic or more) [AgGomR3A, AgGom analogue R3A]” the “cell viability / anti-proliferative activity in DFTD4 cells” value [1] was “eradicated the anti-proliferative activity”.

For “ZCRRACYKQRCVTYCRGR-NH2 (bicyclic or more) [AgGomL5A, AgGom analogue L5A]”, the “cell viability / anti-proliferative activity in DFTD4 cells” value [1] was “eradicated the anti-proliferative activity”.

With “ZCRRLCYKQRCATYCRGR-NH2 (bicyclic or more) [AgGomV12A, AgGom analogue V12A]” the “cell viability / anti-proliferative activity in DFTD4 cells” value [1] was “eradicated the anti-proliferative activity”.
